{
  "source": "patent US10092495B2",
  "about": "“Use of a composition comprising avocado perseose in the protection of epidermal stem cells” (LABORATOIRES EXPANSCIENCE, priority 2013, dated 2018)",
  "origin": "cited, not measured here",
  "tested_on": "Ehrlich ascites tumor cells",
  "conditions": "perseitol associated with a potassium ion",
  "data": [
    {"smiles": "OCC(O)C(O)C(O)C(O)C(O)CO", "note": "(stereo not shown) [perseitol, Perseitol]", "values": [
      {"measurement": "incorporation of 3H-leucine", "value": "inhibit"}
    ]}
  ]
}
